Results: patent publication US11317626B2, “Forchlorfenuron mixtures and uses thereof” (Valent BioSciences LLC, priority 2018, dated 2022)

Columns and labels:
Assay type in all cases: in vivo
[1] = test system: Concord grape vines; experiment: Example 1: bud break and shoot growth of potted Concord grape vines in greenhouse; conditions: for 0-50% BB: days from bud break on the first plant to 50% of the plants with bud break, synchrony
From the text: An aqueous 50% hydrogen cyanamide solution (Sigma-Aldrich, St. Louis, Mo. USA) was used as the source of hydrogen cyanamide (“HC”). The commercial product, Dormex® contains 50% hydrogen cyanamide (w/v) in an aqueous base.
Erger® was used as the source of 15-0-0 fertilizer. Erger® contains 15% total nitrogen as 3.1% ammoniacal nitrogen, 5.8% nitrate nitrogen, 6.1% urea nitrogen and 3.3% calcium derived from a mixture of ammonium nitrate, calcium nitrate and urea. Erger® is always used in combination with either 20% (w/v) Ca(NO3)2 or Activ Erger®. In the following examples, 15-0-0 fertilizer was applied at a rate of 208,340 ppm calcium nitrate, 15,060 ppm nitrogen nitrate and 15,660 ppm urea or 239,060 ppm total.
CAN-17 was used as the 17-0-0 fertilizer. CAN-17 contains 17% total nitrogen as 4.6% ammonium nitrogen and 11.6% nitrate nitrogen and 1.3% urea nitrogen and 8.8% calcium derived from ammonium nitrate and calcium nitrate. CAN-17 is available from J. R. Simplot Company (Boise, Id., USA). In the following examples, 17-0-0 fertilizer was applied at a rate of 118,200 ppm calcium nitrate and 78,900 ppm nitrogen nitrate or 197,100 ppm total. See, Table 1 below, for ratios of forchlorfenuron (“CPPU”) to fertilizer that were used in the following examples.
To assess the ability of mixtures of the invention to promote and synchronize bud break these mixtures were applied to Concord grape vines and examined for bud break (initiation of growth) and subsequent shoot development. Specifically, dormant bare-rooted Concord grape vines were planted in pots containing Pro-Mix® BX potting soil (Pro-Mix is a registered trademark of and available from Premier Horticulture Ltd.) and pruned to five nodes on a single shoot of one-year-old wood. Nodes are regions on the shoot where leaves arise from the shoot and buds are present at the axis of the shoot:leaf interface. The bud found at the shoot:leaf interface develops into the vines new shoot growth. Aqueous solutions of forchlorfenuron, HC, 15-0-0 fertilizer, 17-0-0 fertilizer, and mixtures thereof were each applied individually or sequentially or co-applied to the first-year wood of separate Concord grape vines. Plants were grown in a heated greenhouse for 49 days and evaluated for percent of vines showing bud break, periodically between seven days after application and the conclusion of the experiment. Percent bud break is determined by the number of plants that have at least one bud broken divided by the total number of plants per treatment times 100. At 51 days after treatment (“DAT”), the plants were sacrificed and measured for total number of flower clusters, total new shoot length, longest new shoot, combined new shoot fresh weight. New shoot growth is the growth arising from the dormant buds not including the woody growth that was planted and gave rise to the new growth.
(§1) To determine if the mixtures provided unexpected results, the observed combined efficacy (“OCE”) was divided by the expected combined efficacy (“ECE”) wherein the expected ECE is calculated by the Abbott method: ECE=A+B−(AB/100), • wherein ECE is the expected combined efficacy and in which A and B are the speed of bud break relative to control, the number of buds broken per plant relative to control, shoot length relative to control or shoot weight relative to control given by the single active ingredients. If the ratio between the OCE of the mixture and the ECE of the mixture is greater than 1, then greater than expected interactions are present in the mixture. (Gisi, Synergistic Interaction of Fungicides in Mixtures, The American Phytopathological Society, 86:11, 1273-1279,1996). Results

[2] = test system: Flame seedless grape vines; experiment: Example 3: bud break on spurs of field-grown Flame seedless grape vines; conditions: 41 days post application
Protocol: as §1
To assess the ability of mixtures of the invention to promote and synchronize bud break, these mixtures were applied to field-grown Flame seedless grape vines in Thermal, Calif., and examined for bud break (initiation of growth) and subsequent shoot development. Forchlorfenuron, Dormex (50% HC), 15-0-0 (Erger®) and 17-0-0 fertilizers (CAN17), and mixtures thereof were each applied individually or sequentially (co-applied) to the separate spurs of Flame seedless grape vines. Plants were evaluated for bud break at 41 days after treatment. Results of these evaluations can be seen below in Tables 11 and 12.

[3] = test system: Prunus (stone fruit) plants; experiment: Example 5: bud break and shoot growth of Prunus (stone fruit) plants in greenhouse
Protocol: as §1
To assess the ability of mixtures of the invention to promote and synchronize bud break, these mixtures were applied to Prunus (stone fruit) plants in the greenhouse and examined for bud break (initiation of growth) and subsequent shoot development. Forchlorfenuron, Dormex (50% HC), 15-0-0 (Erger®) and 17-0-0 fertilizers (CAN17), and mixtures thereof were each applied individually or sequentially (co-applied) to the shoots of Prunus plants. Plants were evaluated for bud break at 28 days after treatment.

[4] = test system: Malus (apple) rootstocks; experiment: Example 4: bud break and shoot growth of Malus (apple) rootstocks
Protocol: as §1
To assess the ability of mixtures of the invention to promote and synchronize bud break, these mixtures were applied to field-grown Malus (apple) rootstocks and examined for bud break (initiation of growth) and subsequent shoot development. Forchlorfenuron, Dormex (50% HC), 15-0-0 (Erger®) and 17-0-0 fertilizers (CAN17), and mixtures thereof were each applied individually or sequentially (co-applied) to the shoots of potted Malus rootstocks that were pruned to a height of 25 centimeters. Plants were evaluated for bud break at 28 days after treatment.

[5] = test system: Concord grape vines; experiment: Example 2: Concord grape vines greenhouse, forchlorfenuron and 15-0-0 fertilizer (Erger) study
From the text: (§2) To assess the ability of mixtures of the invention to promote and synchronize bud break these mixtures were applied to Concord grape vines and examined for bud break (initiation of growth) and subsequent shoot development. Specifically, dormant bare-rooted Concord grape vines were planted in pots containing Pro-Mix® BX potting soil (Pro-Mix is a registered trademark of and available from Premier Horticulture Ltd.) and pruned to five nodes on a single shoot of one-year-old wood. Nodes are regions on the shoot where leaves arise from the shoot and buds are present at the axis of the shoot:leaf interface. The bud found at the shoot:leaf interface develops into the vines new shoot growth. Aqueous solutions of forchlorfenuron, HC, 15-0-0 fertilizer, 17-0-0 fertilizer, and mixtures thereof were each applied individually or sequentially or co-applied to the first-year wood of separate Concord grape vines. […] Percent bud break is determined by the number of plants that have at least one bud broken divided by the total number of plants per treatment times 100. […] New shoot growth is the growth arising from the dormant buds not including the woody growth that was planted and gave rise to the new growth.
as §1
(§3) The experiment from Example 1 was repeated with varying quantities of forchlorfenuron and fertilizers in a greenhouse experiment.

[6] = test system: Concord grape vines; experiment: Example 2: Concord grape vines greenhouse, forchlorfenuron and 17-0-0 fertilizer (CAN17) study
From the text: as §2, §1, §3

[7] = days after treatment to 50% bud break
[8] = combined shoot fresh weight, 52 days after planting

SMILES: N#CN [1% HC (v/v), hydrogen cyanamide]
- Percentage of Concord Grape Vines with Dormancy Relieved ([1]; 31 days after treatment, plants with at least one bud showing a green shoot emerging): 100%
- Percentage of Concord Grape Vines with Dormancy Relieved ([1]; 34 days after treatment): 100%
- Percentage of Concord Grape Vines with Dormancy Relieved ([1]; 36 days after treatment): 100%
- Percentage of Concord Grape Vines with Dormancy Relieved ([1]; 38 days after treatment): 100%
- Percentage of Concord Grape Vines with Dormancy Relieved ([1]; 43 days after treatment): 100%
- Percentage of Concord Grape Vines with Dormancy Relieved ([1]; 45 days after treatment): 100%
- Percentage of Concord Grape Vines with Dormancy Relieved ([1]; 51 days after treatment): 100%
- Broken Buds/Plant ([1]; 51 days post-treatment): 2.50
- FW/Broken Bud ([1]; 51 days post-treatment): 11.18 grams
- FW/Plant ([1]; combined shoot fresh weight at 51 DAT): 27.95 grams
- 50% BB ([1]; days from application to 50% of the plants showing at least one bud broken): 15 days
- 0-50% BB [1]: 4 days
- 0-50% BB ([1]; listed as 1% HC): four
- Broken Buds per Spur (OCE) [2]: 1.48
- Percentage of Spurs With At Least One Bud Broken (OCE) [2]: 72%
- Fresh Weight at Harvest, FW ([3]; combined new shoot fresh weight, harvest at 28 days): 4.76 grams
- 50% BB [3, 7]: 7 days
- Fresh Weight at Harvest ([4]; combined new shoot growth, harvest at 28 days): 7.99 grams
- 50% BB [4, 7]: 12 days
- Average Number of Broken Buds Per Malus Plant at Harvest ([4]; harvest at 28 days): 8.13
- Fresh Weight per Bud at Harvest ([4]; harvest at 28 days): 0.98 grams
- Average Number of Broken Nodes Per Centimeter of Shoot at Harvest ([4]; harvest at 28 days, rootstocks pruned to 25 centimeters): 0.325
- Fresh Weight at Harvest [5, 8]: 42.21 grams
- 50% BB [5, 7]: 17 days
- Average Number of Broken Nodes Per Plant at Harvest ([5]; harvest 52 days after planting): 2.13
- Fresh Weight at Harvest [6, 8]: 37.01 grams
- 50% BB [6, 7]: 17 days
- Average Number of Broken Nodes Per Plant at Harvest ([6]; harvest 52 days after planting): 2.38
